This note sets out measurements from US20070276025A1, “Indirubin-Type Compounds, Compositions, and Methods for Their Use” (priority 2003, published 2007).

Read-outs that look alike come from different tables or passages of the source.

For series [1], the target named is T1, AhR (Mus musculus, UniProt P30561).
T1 sequence (P30561 1-848): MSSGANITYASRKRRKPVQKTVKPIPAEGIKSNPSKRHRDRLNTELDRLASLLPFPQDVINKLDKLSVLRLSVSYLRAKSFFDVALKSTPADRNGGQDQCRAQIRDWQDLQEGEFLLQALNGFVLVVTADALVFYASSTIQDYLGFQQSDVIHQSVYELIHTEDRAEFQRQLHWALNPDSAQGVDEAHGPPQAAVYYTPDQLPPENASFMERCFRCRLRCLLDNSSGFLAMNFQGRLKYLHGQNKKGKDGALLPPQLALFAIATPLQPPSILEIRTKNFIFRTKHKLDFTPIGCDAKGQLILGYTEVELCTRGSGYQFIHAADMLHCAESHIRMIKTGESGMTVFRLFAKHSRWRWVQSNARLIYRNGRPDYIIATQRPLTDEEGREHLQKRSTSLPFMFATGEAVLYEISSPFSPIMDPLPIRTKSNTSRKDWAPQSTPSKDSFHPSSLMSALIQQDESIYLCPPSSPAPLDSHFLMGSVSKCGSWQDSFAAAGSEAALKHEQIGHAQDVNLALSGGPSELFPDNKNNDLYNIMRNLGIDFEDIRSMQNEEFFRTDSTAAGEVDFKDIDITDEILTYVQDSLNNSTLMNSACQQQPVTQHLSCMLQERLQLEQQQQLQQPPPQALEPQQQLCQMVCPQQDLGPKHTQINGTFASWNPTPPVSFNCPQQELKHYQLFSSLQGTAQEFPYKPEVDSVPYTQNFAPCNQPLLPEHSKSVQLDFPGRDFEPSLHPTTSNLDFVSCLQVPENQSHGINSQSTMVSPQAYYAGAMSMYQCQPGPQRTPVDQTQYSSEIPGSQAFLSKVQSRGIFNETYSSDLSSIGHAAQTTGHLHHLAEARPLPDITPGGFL
The following applies: read-out: EC50 AhR (hepatoma cell line); Table 4; EGFP at 24 hours.

The target in series [2] is T2, AhR (Homo sapiens, UniProt P35869).
The next series addresses CDK1/cyclin B. The series can be described thus: CDK1/cyclin B kinase assay (histone H1, 15 μM ATP). Format: biochemical, starfish (Marthasterias glacialis).
The target of the next series is GSK-3α/β. The series can be described thus: GSK-3α/β kinase assay (GS-1 peptide, 15 μM ATP). Format: biochemical, porcine.
Series [3] can be described thus: Solubility (qualitative remark). The following applies: relative to parent indirubins / 3′-oximes.
Another series concerns the target CDK5/p25 (Homo sapiens, UniProt Q00535). Kind of series: CDK5/p25 kinase assay (histone H1, 15 μM ATP). Format: biochemical, mammalian. The following applies: read-out: IC50 CDK5/p25.
In series [4] the target is T2, AhR. Kind of series: Yeast AhR reporter assay (β-galactosidase). A general note: A reporter such as luciferase makes a cellular process visible.
In series [5] the test system is p27^KIP1 in 5L (AhR +/+) cells. The series can be described thus: p27KIP1 expression by Western blotting, 5L cells. It is filed as cell-based, mouse. The following applies: 10 μM indirubins or 0.1 μM TCDD, 24 hr. On the technique in general: A western blot detects proteins with antibodies after separation by electrophoresis.
Series [6] has as its system 5L (AhR +/+) hepatoma cells. Kind of series: FACS cell cycle analysis, 5L cells. It is filed as cell-based, mouse. The following applies: 10 μM indirubins or 100 nM TCDD, 24 hr.
The subject of series [7] is AhR. The series can be described thus: AhR nuclear translocation in Hepa-1 and ARNT mutant cells (immunofluorescence). Format: cell-based, mouse. The settings on record: 25 μM, 90 min, Hepa-1 wild-type and ARNT mutant cells.
[8] abbreviates: Table 4, read-out: IC50 CDK1/cycin B.
[9] abbreviates: Table 7, GSK-3, read-out: IC50exp.
Setting [10] is: Table 1, read-out: IC50 GSK-3 α/β.
The mark [11] stands for this setting: Table 5, read-out: IC50 GSK-3α/β.
[12] abbreviates: Table 5, read-out: IC50 CDK1/cyclin B.
Setting [13] is: read-out: EC50 AhR (yeast), Table 4, * = inactive at the indicated highest concentration tested.

CDK5/p25, sequence (Q00535 whole entry, species assumed): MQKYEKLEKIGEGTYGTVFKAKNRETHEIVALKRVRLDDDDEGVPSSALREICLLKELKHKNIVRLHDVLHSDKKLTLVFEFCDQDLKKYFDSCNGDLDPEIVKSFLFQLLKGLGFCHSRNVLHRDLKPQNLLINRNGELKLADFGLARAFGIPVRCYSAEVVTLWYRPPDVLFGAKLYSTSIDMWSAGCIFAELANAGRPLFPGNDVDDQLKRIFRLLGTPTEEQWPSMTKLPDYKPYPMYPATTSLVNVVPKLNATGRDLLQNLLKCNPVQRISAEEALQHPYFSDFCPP
CDK5/p25, sequence (Q15078 99-307 partner limits assumed, species assumed): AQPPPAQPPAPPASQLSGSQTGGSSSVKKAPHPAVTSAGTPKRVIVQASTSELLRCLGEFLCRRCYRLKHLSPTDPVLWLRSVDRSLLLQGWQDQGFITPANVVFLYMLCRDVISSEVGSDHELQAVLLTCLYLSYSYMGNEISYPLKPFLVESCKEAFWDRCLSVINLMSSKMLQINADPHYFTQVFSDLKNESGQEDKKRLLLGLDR
T2 sequence (P35869 11-848): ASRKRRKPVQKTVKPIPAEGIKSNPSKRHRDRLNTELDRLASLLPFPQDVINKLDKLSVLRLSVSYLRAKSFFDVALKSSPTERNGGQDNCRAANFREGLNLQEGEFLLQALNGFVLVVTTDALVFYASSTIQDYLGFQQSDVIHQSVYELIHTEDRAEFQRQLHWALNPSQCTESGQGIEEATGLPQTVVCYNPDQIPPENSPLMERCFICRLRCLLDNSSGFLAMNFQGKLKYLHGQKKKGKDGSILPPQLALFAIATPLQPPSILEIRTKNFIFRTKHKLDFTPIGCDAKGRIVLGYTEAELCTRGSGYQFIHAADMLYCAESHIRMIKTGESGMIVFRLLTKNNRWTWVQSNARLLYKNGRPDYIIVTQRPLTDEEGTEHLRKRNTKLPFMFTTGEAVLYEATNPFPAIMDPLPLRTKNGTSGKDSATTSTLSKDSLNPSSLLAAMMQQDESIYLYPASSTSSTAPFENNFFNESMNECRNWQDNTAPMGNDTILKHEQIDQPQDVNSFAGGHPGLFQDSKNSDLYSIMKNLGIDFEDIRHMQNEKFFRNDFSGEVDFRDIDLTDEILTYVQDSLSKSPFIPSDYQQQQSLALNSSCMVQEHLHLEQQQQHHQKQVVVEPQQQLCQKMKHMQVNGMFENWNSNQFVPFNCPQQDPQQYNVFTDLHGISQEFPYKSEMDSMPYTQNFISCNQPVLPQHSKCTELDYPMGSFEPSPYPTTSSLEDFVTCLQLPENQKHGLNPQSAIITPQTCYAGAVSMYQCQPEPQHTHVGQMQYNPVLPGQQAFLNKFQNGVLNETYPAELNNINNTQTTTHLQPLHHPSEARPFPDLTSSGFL
T2 sequence (P27540 whole entry partner): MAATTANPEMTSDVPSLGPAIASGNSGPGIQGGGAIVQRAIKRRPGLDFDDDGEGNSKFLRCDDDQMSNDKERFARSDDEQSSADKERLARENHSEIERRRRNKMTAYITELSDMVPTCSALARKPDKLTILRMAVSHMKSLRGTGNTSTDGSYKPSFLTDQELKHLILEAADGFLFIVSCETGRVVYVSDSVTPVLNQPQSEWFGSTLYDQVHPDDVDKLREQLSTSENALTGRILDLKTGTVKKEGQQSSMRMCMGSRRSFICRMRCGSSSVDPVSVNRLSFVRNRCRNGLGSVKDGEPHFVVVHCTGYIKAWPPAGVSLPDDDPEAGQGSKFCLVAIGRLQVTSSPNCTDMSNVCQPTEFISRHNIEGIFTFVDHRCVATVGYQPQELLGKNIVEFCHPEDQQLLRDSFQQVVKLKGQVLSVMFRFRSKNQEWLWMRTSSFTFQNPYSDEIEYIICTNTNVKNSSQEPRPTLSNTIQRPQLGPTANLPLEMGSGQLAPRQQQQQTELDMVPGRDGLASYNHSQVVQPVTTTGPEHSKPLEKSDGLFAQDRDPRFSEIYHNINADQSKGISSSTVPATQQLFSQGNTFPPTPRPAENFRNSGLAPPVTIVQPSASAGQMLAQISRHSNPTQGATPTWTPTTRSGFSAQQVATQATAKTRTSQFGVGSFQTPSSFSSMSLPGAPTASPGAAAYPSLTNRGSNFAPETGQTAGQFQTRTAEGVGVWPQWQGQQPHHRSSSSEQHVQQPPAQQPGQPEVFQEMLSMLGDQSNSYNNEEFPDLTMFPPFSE

For `O=C1Nc2ccccc2/C1=C1/Nc2ccccc2C1=O` [5h, indirubin], the values for the EC50 at AhR [1] and at AhR [2] were 59 nM and 6 nM, respectively.

Take `O=C1Nc2ccc(I)cc2/C1=C1/Nc2ccccc2C1=O` [compound 18, 5-iodo-indirubin, reference compound]: the IC50 at CDK1/cyclin B (setting [8]) amounted to 220 nM. For the same compound, the midpoint of the response at AhR [2], the EC50, lay at 30 nM.

As for `Cc1ccc2c(c1)/C(=C1/Nc3ccccc3C1=O)C(=O)N2` [compound 15, 5-methyl-indirubin, reference compound], the EC50 – broadly, the concentration that produces a half-maximal response – on AhR [1] came to 25 nM; on AhR [2], 40 nM. Further, the IC50 at GSK-3α/β (Table 4, read-out: IC50 GSK-3) came to 62 nM; on GSK-3α/β (setting [9]) it was 62 nM; at CDK1/cyclin B (read-out: IC50 CDK1/cycin B), 280 nM.

`O=C1Nc2ccc(Br)cc2/C1=C1/Nc2ccc(Br)cc2C1=O` [compound 21, 5,5′-dibromo-indirubin, reference compound]: the EC50 was 47 nM on AhR [1] and more than 200 nM at AhR [2]. The IC50 turned out to be 250 nM on GSK-3α/β (Table 4, read-out: IC50 GSK-3); 250 nM on GSK-3α/β (setting [9]); 600000 nM on CDK1/cyclin B (setting [8]).

Take `O=C1Nc2cc(Br)ccc2C1=C1Nc2cc(Br)ccc2C1=NO` [13b, 6,6′-dibromo-indirubin-3′-oxime]: in series [3], the “solubility (in words)” value is “increased solubility”. Besides, the IC50 at GSK-3α/β (setting [10]) was 120 nM; on GSK-3α/β (setting [11]), 120 nM; at GSK-3α/β (setting [9]) it was 120 nM; at CDK1/cyclin B (Table 1, read-out: IC50 CDK1/cyclin B), 17000 nM; on CDK1/cyclin B (setting [12]) it was 17000 nM; on CDK5/p25 (Table 1) it was 1300 nM. Also, the IC50 at CDK5/p25 (Table 5) amounted to 1300 nM.

Turning to `O=C1Nc2ccc(Br)cc2/C1=C1/Nc2ccccc2C1=O` [compound 16, 5-bromo-indirubin, reference compound], the EC50 on AhR [1] turned out to be 7 nM; at AhR [2], 35 nM. In addition, the IC50 worked out at 55 nM on GSK-3α/β (Table 4, read-out: IC50 GSK-3); 55 nM on GSK-3α/β (setting [9]); 230 nM at CDK1/cyclin B (setting [8]).

As for `O=C1Nc2ccc(Cl)cc2/C1=C1/Nc2ccccc2C1=O` [compound 17, 5-chloro-indirubin, reference compound], the figures for the EC50 on AhR [1] and on AhR [2] were 52 nM and 40 nM, respectively. For the same compound, the IC50 at GSK-3α/β (Table 4, read-out: IC50 GSK-3) was 50 nM; on GSK-3α/β (setting [9]) it was 50 nM; at CDK1/cyclin B (setting [8]), 280 nM.

`Clc1cc2c(cc1Cl)Oc1cc(Cl)c(Cl)cc1O2` [compound 25, 2,3,7,8-tetrachlorodibenzo-p-dioxin, reference compound]: the EC50 on AhR [4] was 25 nM; at AhR [1] it was 0.015 nM. Also, the IC50 on GSK-3α/β (Table 4, read-out: IC50 GSK-3) is more than 15000 nM; at CDK1/cyclin B (setting [8]), more than 15000 nM. Besides, the “p27^KIP1 expression in 5L cells” value in [5] was “up-regulates the expression of both CYP1A1 and p27^KIP1 in the 5L”. Further, the “accumulation of 5L cells in G1 phase” value in [6] was “triggered an AhR-dependent arrest in G1”.

With `CN1C(=O)C(=C2Nc3ccccc3C2=O)c2ccc(Br)cc21` [12c, 6-Bromo-1-methylindirubin], the EC50 on AhR [4] (setting [13]) was not below 100 nM; on AhR [1], 50 nM. The IC50 on GSK-3α/β (setting [10]) is more than 100000 nM; at GSK-3α/β (Table 4, read-out: IC50 GSK-3), more than 100000 nM; at GSK-3α/β (setting [11]), more than 100000 nM; on CDK1/cyclin B (setting [8]), more than 100000 nM; on CDK1/cyclin B (setting [12]), more than 100000 nM; on CDK5/p25 (Table 1) it was more than 100000 nM. Besides, the IC50 at CDK5/p25 (Table 5) is more than 100000 nM.

For the compound `O=C1Nc2cccc(Cl)c2/C1=C1/Nc2ccccc2C1=O` [compound 6, 4-Chloroindirubin], the values for the EC50 on AhR [4] (setting [13]) and at AhR [1] were more than 100 nM and 310 nM, respectively. Moreover, the IC50 at GSK-3α/β (Table 4, read-out: IC50 GSK-3) is more than 100000 nM; on GSK-3α/β (setting [11]) it was more than 100000 nM; at CDK1/cyclin B (setting [8]), 10000 nM; on CDK1/cyclin B (setting [12]) it was 10000 nM; on CDK5/p25 (Table 5), 10000 nM.

For the compound `O=C1Nc2ccccc2/C1=C1/Nc2ccc(Br)cc2C1=O` [compound 20, 5′-bromo-indirubin, reference compound], the EC50 is 51 nM at AhR [1] and not below 100 nM on AhR [2]. For the same compound, the IC50 on GSK-3α/β (Table 4, read-out: IC50 GSK-3) is 350 nM; at GSK-3α/β (setting [9]), 350 nM; on CDK1/cyclin B (setting [8]), 510 nM.

For the compound `O=C1Nc2ccc(I)cc2/C1=C1/Nc2ccccc2/C1=N\O` [compound 19, 5-iodo-indirubin-3′-oxime, reference compound], the EC50 worked out at 5 nM on AhR [1] and 50 nM at AhR [2]. Moreover, at CDK1/cyclin B (setting [8]), the IC50 was determined as 25 nM. Further, in the series with AhR [7], the “nuclear translocation of AhR” value is “triggered ARNT-independent nuclear redistribution of AhR”.
